These compounds were tested against T1, LCK (Homo sapiens, UniProt P06239) (assay: LCK-Homogeneous Time Resolved Fluorescent (HTRF) Kinase Assay). Conditions: not given.
T1 construct: LCK KD GST (225-509); GST
Format: biochemical
Procedure, shortened: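 LCK phosphorylates biotinylated Gastrin peptide in the presence of ATP for 90 min in 50 mM HEPES pH 7.5, 50 mM NaCl, 20 mM MgCl, 5 mM MnCl, 2 mM DTT, 0.05% BSA. Reaction stopped with EDTA-containing detection reagent, then equilibrated 30 min before HTRF read.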

T1 sequence (P06239 225-509): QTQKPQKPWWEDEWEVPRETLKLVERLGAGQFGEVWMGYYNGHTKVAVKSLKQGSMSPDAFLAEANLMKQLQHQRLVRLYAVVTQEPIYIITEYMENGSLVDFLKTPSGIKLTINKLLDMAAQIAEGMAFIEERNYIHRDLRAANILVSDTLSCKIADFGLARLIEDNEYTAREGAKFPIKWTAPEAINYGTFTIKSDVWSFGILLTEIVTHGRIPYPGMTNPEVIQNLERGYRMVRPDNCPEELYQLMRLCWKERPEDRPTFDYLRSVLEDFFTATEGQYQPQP

IC50, < 1000 nM:
CN1CCN(c2ccc(Nc3ncc4c(=O)n(-c5c(Cl)cccc5Cl)c5nc6ccccc6n5c4n3)cc2)CC1 [No. 67, 6-(2,6-dichlorophenyl)-2-((4-(4-methyl-1-piperazinyl)phenyl)amino)pyrimido[5′,4′:5,6]-pyrimido[1,2-a]benzimidazol-5(6H)-one]
COc1ccc(Cl)cc1-n1c(=O)c2cnc(Nc3ccc(N4CCN(C)CC4)cc3)nc2n2c3ccccc3nc12 [No. 76, 6-(5-chloro-2-(methyloxy)phenyl)-2-((4-(4-methyl-1-piperazinyl)phenyl)amino)pyrimido[5′,4′:5,6]-pyrimido[1,2-a]benzimidazol-5(6H)-one]
CN1CCN(c2ccc(Nc3ncc4c(=O)n(-c5c(Cl)cc(Cl)cc5Cl)c5nc6ccccc6n5c4n3)cc2)CC1 [No. 77, 2-((4-(4-methyl-1-piperazinyl)phenyl)amino)-6-(2,4,6-trichlorophenyl)pyrimido[5′,4′:5,6]-pyrimido[1,2-a]benzimidazol-5(6H)-one]
Cc1ccc(-n2c(=O)c3cnc(Nc4ccc(N5CCN(C)CC5)cc4)nc3n3c4ccccc4nc23)cc1 [No. 78, 6-(4-methylphenyl)-2-((4-(4-methyl-1-piperazinyl)-phenyl)amino)pyrimido[5′,4′:5,6]pyrimido[1,2-a]-benzimidazol-5(6H)-one]
Cc1cccc(-n2c(=O)c3cnc(Nc4ccc(N5CCN(C)CC5)cc4)nc3n3c4ccccc4nc23)c1 [No. 80, 6-(3-methylphenyl)-2-((4-(4-methyl-1-piperazinyl)-phenyl)amino)pyrimido[5′,4′:5,6]pyrimido[1,2-a]-benzimidazol-5(6H)-one]
COc1cccc(-n2c(=O)c3cnc(Nc4ccc(N5CCN(C)CC5)cc4)nc3n3c4ccccc4nc23)c1 [No. 81, 6-(3-(methyloxy)phenyl)-2-((4-(4-methyl-1-piperazinyl)phenyl)amino)pyrimido[5′,4′:5,6]-pyrimido[1,2-a]benzimidazol-5(6H)-one]

Same assay, conditions: read-out: activity in the LCK-HTRF Kinase Assay

IC50, < 1000 nM:
C[C@H](c1ccccc1)n1c(=O)c2cnc(Nc3ccc(N4CCN(C)CC4)cc3)nc2n2c3ccccc3nc12 [No. 68, 2-((4-(4-methyl-1-piperazinyl)phenyl)amino)-6-((1R)-1-phenylethyl)pyrimido[5′,4′:5,6]pyrimido[1,2-a]-benzimidazol-5(6H)-one]
Cc1cccc(C)c1-n1c(=O)c2cnc(Nc3ccc(N4CCN(CCO)CC4)cc3)nc2n2c3ccccc3nc12 [No. 69, 6-(2,6-dimethylphenyl)-2-((4-(4-(2-hydroxyethyl)-1-piperazinyl)phenyl)amino)pyrimido[5′,4′:5,6]-pyrimido[1,2-a]benzimidazol-5(6H)-one]
Cc1cccc(C)c1-n1c(=O)c2cnc(Nc3ccc(OCCN4CCN(C(C)C)CC4)c(Cl)c3)nc2n2c3ccccc3nc12 [No. 70, 2-((3-chloro-4-((2-(4-(1-methylethyl)-1-piperazinyl)-ethyl)oxy)phenyl)amino)-6-(2,6-dimethylphenyl)-pyrimido[5′,4′:5,6]pyrimido[1,2-a]benzimidazol-5(6H)-one]
Cc1cccc(C)c1-n1c(=O)c2cnc(Nc3ccc(C(=O)NCCN(C)C)cc3)nc2n2c3ccccc3nc12 [No. 71, N-(2-(dimethylamino)ethyl)-4-((6-(2,6-dimethylphenyl)-5-oxo-5,6-dihydropyrimido[5′,4′:5,6]pyrimido[1,2-a]-benzimidazol-2-yl)amino)benzamide]
Cc1cccc(C)c1-n1c(=O)c2cnc(Nc3ccc(OCCCN4CCN(C(C)C)CC4)c(F)c3)nc2n2c3ccccc3nc12 [No. 72, 6-(2,6-dimethylphenyl)-2-((3-fluoro-4-((3-(4-(1-methylethyl)-1-piperazinyl)propyl)oxy)phenyl)-amino)pyrimido[5′,4′:5,6]pyrimido[1,2-a]-benzimidazol-5(6H)-one]
Cc1cccc(C)c1-n1c(=O)c2cnc(Nc3ccc(OCCCN4CCN(C)CC4)c(Cl)c3)nc2n2c3ccccc3nc12 [No. 73, 2-((3-chloro-4-((3-(4-methyl-1-piperazinyl)propyl)-oxy)phenyl)amino)-6-(2,6-dimethylphenyl)-pyrimido[5′,4′:5,6]pyrimido[1,2-a]benzimidazol-5(6H)-one]
Cc1cccc(C)c1-n1c(=O)c2cnc(Nc3ccc(N4CCCN(C)CC4)cc3)nc2n2c3ccccc3nc12 [No. 74, 6-(2,6-dimethylphenyl)-2-((4-(4-methyl-1,4-diazepan-1-yl)phenyl)amino)pyrimido[5′,4′:5,6]pyrimido[1,2-a]benzimidazol-5(6H)-one]
Cc1cccc(C)c1-n1c(=O)c2cnc(Nc3ccc(N4CCCNCC4)cc3)nc2n2c3ccccc3nc12 [No. 75, 2-((4-(1,4-diazepan-1-yl)phenyl)amino)-6-(2,6-dimethylphenyl)pyrimido[5′,4′:5,6]pyrimido[1,2-a]-benzimidazol-5(6H)-one]
CN1CCN(c2ccc(Nc3ncc4c(=O)n(-c5ccccc5F)c5nc6ccccc6n5c4n3)cc2)CC1 [No. 79, 6-(2-fluorophenyl)-2-((4-(4-methyl-1-piperazinyl)-phenyl)amino)pyrimido[5′,4′:5,6]pyrimido[1,2-a]-benzimidazol-5(6H)-one]
CN1CCN(c2ccc(Nc3ncc4c(=O)n(-c5cccc(F)c5)c5nc6ccccc6n5c4n3)cc2)CC1 [No. 83, 6-(3-fluorophenyl)-2-((4-(4-methyl-1-piperazinyl)-phenyl)amino)pyrimido[5′,4′:5,6]pyrimido[1,2-a]-benzimidazol-5(6H)-one]
CN1CCN(c2ccc(Nc3ncc4c(=O)n(-c5ccc(F)cc5)c5nc6ccccc6n5c4n3)cc2)CC1 [No. 84, 6-(4-fluorophenyl)-2-((4-(4-methyl-1-piperazinyl)-phenyl)amino)pyrimido[5′,4′:5,6]pyrimido[1,2-a]-benzimidazol-5(6H)-one]
Cc1cccc(C)c1-n1c(=O)c2cnc(Nc3ccc(N4CCN(C)CC4)cc3)nc2n2ccnc12 [No. 87, 6-(2,6-dimethylphenyl)-2-((4-(4-methyl-1-piperazinyl)phenyl)amino)imidazo[1,2-a]-pyrimido[5,4-e]pyrimidin-5(6H)-one]
CN1CCN(c2ccc(Nc3ncc4c(=O)n(-c5c(F)cccc5F)c5nc6ccccc6n5c4n3)cc2)CC1 [No. 88, 6-(2,6-difluorophenyl)-2-((4-(4-methyl-1-piperazinyl)-phenyl)amino)pyrimido[5′,4′:5,6]pyrimido[1,2-a]-benzimidazol-5(6H)-one]
CN1CCN(c2ccc(Nc3ncc4c(=O)n(-c5c(F)c(F)c(F)c(F)c5F)c5nc6ccccc6n5c4n3)cc2)CC1 [No. 89, 2-((4-(4-methyl-1-piperazinyl)phenyl)amino)-6-(pentafluorophenyl)pyrimido[5′,4′:5,6]pyrimido[1,2-a]benzimidazol-5(6H)-one]

Reference: patent US20050070554A1, “Substituted heterocyclic compounds and methods of use” (Amgen Inc., priority 2003, published 2005)
